Reference: ChEMBL document CHEMBL5543155, “Design, Synthesis, and Biological Evaluation of β-Trifluoroethoxydimethyl Selenides as Potent Antiosteoporosis Agents” (J Med Chem, 2024)
Calls of active or inactive are those of the source. The calls are words filed in the database; no cut-off is given here.

Tests used:
[1] = tested on: BMMC; assay: Anti-osteoclastogenesis activity in M-CSF/RANKL-induced C57BL/6 mouse BMMC cells assessed as downregulation of MMP-9 gene expression incubated for 5 days by qRT-PCR analysis; format: functional, cell-based; details: dose 0-10 µM, time 5.0 day
[2] = tested on: BMMC; assay: Anti-osteoclastogenesis activity in M-CSF/RANKL-induced C57BL/6 mouse BMMC cells assessed as reduction in number of TRAP-positive osteoclasts at 0 to 10 uM incubated for 6 days with media replacement for every 2 days by TRAP-staining based light microscopic analysis; format: functional, cell-based; details: dose 0-10 µM, time 6.0 day
[3] = tested on: BMMC; assay: Anti-osteoclastogenesis activity in M-CSF/RANKL-induced C57BL/6 mouse BMMC cells assessed as inhibition of osteoclasts formation incubated for 6 days with media replacement for every 2 days by TRAP-staining based light microscopic analysis; format: functional, cell-based
[4] = tested on: BMMC; assay: Anti-osteoclastogenesis activity in M-CSF/RANKL-induced C57BL/6 mouse BMMC cells assessed as prevention of osteoclasts precursor differentiation at 5 uM measured on day 1 to 3 by TRAP-staining based light microscopic analysis; format: functional, cell-based; details: time 1-3 day
[5] = tested on: BMMC; assay: Anti-osteoclastogenesis activity in M-CSF/RANKL-induced C57BL/6 mouse BMMC cells cultured in hydroxyapatite-coated plates assessed as reduction in bone resorbed area per osteoclast incubated for 4 days by microscopic analysis; format: functional, cell-based; details: dose 2.5-10 µM, time 4.0 day
[6] = tested on: BMMC; assay: Anti-osteoclastogenesis activity in M-CSF/RANKL-induced C57BL/6 mouse BMMC cells assessed as downregulation of NFATc1 gene expression incubated for 5 days by qRT-PCR analysis; format: functional, cell-based; details: dose 0-10 µM, time 5.0 day
[7] = target: c-Jun N-terminal kinase (Mus musculus) (UniProt Q91Y86+Q9WTU6+Q61831); assay: Inhibition of JNK phosphorylation in RANKL-induced C57BL/6 mouse BMMC cells at 5 uM pretreated for 6 hrs followed by RANKL stimulation and measured upto 60 mins by Western blot analysis; format: cell-based; details: time <= 7.0 hrs
Sequence of c-Jun N-terminal kinase (Mus musculus) (Q61831 whole entry, looked up): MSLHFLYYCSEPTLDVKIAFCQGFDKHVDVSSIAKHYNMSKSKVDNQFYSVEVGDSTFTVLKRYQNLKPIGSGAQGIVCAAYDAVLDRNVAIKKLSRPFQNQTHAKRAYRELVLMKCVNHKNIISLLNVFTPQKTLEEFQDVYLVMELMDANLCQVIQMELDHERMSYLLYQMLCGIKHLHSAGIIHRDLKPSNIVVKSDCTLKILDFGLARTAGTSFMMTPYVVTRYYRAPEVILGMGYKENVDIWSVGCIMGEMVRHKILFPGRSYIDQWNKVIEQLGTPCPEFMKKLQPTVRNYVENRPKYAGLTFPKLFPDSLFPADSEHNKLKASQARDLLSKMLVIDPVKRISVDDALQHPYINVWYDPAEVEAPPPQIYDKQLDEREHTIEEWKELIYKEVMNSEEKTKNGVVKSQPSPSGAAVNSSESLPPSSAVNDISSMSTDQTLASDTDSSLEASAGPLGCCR
Sequence of c-Jun N-terminal kinase (Mus musculus) (Q91Y86 whole entry, looked up): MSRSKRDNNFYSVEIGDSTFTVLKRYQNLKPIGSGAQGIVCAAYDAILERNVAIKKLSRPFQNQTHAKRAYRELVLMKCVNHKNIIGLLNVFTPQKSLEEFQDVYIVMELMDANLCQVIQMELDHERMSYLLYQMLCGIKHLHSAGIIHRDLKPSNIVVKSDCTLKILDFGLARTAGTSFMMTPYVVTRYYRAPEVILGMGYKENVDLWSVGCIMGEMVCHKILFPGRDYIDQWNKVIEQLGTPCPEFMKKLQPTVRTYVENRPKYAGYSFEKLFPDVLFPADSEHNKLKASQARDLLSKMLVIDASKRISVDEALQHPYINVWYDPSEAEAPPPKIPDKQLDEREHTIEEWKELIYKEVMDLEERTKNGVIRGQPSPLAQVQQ
Sequence of c-Jun N-terminal kinase (Mus musculus) (Q9WTU6 whole entry, looked up): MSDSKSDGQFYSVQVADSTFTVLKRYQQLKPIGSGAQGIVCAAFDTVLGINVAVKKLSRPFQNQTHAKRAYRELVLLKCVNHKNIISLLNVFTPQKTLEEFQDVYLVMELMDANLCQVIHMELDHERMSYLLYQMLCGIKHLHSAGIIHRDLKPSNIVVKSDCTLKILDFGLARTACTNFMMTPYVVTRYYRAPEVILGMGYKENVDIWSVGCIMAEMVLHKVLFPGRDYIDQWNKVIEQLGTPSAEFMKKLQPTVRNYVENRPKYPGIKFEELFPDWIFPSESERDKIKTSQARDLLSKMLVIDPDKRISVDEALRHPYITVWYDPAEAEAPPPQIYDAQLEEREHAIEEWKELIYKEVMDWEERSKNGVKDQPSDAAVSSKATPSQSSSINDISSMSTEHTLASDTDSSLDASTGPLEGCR

[8] = tested on: BMMC; assay: Effect on total ERK protein expression in RANKL-induced C57BL/6 mouse BMMC cells at 5 uM pretreated for 6 hrs followed by RANKL stimulation and measured upto 60 mins by Western blot analysis; format: functional, cell-based; details: time <= 7.0 hrs
[9] = tested on: BMMC; assay: Effect on total p65 protein expression in RANKL-induced C57BL/6 mouse BMMC cells at 5 uM pretreated for 6 hrs followed by RANKL stimulation and measured upto 60 mins by Western blot analysis; format: functional, cell-based; details: time <= 7.0 hrs
[10] = target: Transcription factor p65 (Mus musculus) (UniProt Q04207); assay: Inhibition of p65 phosphorylation in RANKL-induced C57BL/6 mouse BMMC cells at 5 uM pretreated for 6 hrs followed by RANKL stimulation and measured upto 60 mins by Western blot analysis; format: cell-based; details: time <= 7.0 hrs
Sequence of Transcription factor p65 (Mus musculus) (Q04207 whole entry): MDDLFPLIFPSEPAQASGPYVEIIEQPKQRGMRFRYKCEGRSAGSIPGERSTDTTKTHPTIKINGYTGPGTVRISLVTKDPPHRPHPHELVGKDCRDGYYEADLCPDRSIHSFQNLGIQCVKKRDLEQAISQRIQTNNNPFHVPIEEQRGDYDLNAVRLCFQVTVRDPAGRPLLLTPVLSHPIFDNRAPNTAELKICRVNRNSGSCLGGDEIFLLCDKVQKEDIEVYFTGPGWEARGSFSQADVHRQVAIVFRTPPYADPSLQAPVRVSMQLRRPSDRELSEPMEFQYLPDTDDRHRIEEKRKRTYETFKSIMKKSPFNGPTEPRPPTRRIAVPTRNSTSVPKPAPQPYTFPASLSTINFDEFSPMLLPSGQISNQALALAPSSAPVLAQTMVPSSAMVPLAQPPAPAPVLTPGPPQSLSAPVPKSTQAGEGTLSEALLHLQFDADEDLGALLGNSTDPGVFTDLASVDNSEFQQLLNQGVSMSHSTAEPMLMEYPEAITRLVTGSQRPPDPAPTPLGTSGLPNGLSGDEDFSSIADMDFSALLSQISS

[11] = target: T1, NF-kappa-B inhibitor alpha (Mus musculus) (UniProt Q9Z1E3); assay: Inhibition of RANKL-induced IkappaBalpha phosphorylation in C57BL/6 mouse BMMC cells at 5 uM pretreated for 6 hrs followed by RANKL stimulation and measured upto 60 mins by Western blot analysis; format: cell-based; details: time <= 7.0 hrs
T1 sequence (whole entry): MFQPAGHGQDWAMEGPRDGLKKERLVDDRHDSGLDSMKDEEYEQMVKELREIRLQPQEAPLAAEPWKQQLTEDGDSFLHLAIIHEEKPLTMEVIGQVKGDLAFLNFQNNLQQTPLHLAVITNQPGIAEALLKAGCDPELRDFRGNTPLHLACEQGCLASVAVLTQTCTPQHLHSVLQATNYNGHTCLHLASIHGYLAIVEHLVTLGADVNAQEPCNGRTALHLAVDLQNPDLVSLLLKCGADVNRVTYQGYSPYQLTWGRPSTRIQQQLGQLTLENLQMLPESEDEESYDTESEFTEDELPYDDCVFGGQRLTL

[12] = tested on: MC3T3-E1; assay: Induction of osteoblast differentiation in mouse MC3T3-E1 cells assessed as bone formation by measuring increase in calcium deposition measured after 21 days by Alizarin red S staining based inverted microscopic analysis; format: functional, cell-based; details: dose 2.5-10 µM, time 21.0 day
[13] = tested on: MC3T3-E1; assay: Induction of osteoblast differentiation in mouse MC3T3-E1 cells assessed as bone formation by measuring increase in BMP2 protein expression measured after 7 days by Western blot analysis; format: functional, cell-based; details: dose 2.5-10 µM, time 7.0 day
[14] = tested on: MC3T3-E1; assay: Induction of osteoblast differentiation in mouse MC3T3-E1 cells assessed as bone formation by measuring increase in Runx2 protein expression measured after 7 days by Western blot analysis; format: functional, cell-based; details: dose 2.5-10 µM, time 7.0 day
[15] = Toxicity in OVX osteoporotic C57BL/6 mouse assessed as effect on size and surface gloss of liver at 10 mg/kg, ip administered every other day for 8 weeks by H and E staining based analysis; format: organism-based; details: in vivo, 1344 h
[16] = Toxicity in OVX osteoporotic C57BL/6 mouse assessed as effect on size and surface gloss of spleen at 10 mg/kg, ip administered every other day for 8 weeks by H and E staining based analysis; format: organism-based; details: in vivo, 1344 h
[17] = Toxicity in OVX osteoporotic C57BL/6 mouse assessed as effect on size and surface gloss of kidney at 10 mg/kg, ip administered every other day for 8 weeks by H and E staining based analysis; format: organism-based; details: in vivo, 1344 h
[18] = tested on: Mus musculus; assay: Anti-osteoporosis activity in ovariectomized C57BL/6 mouse assessed as reduction in bone loss by measuring increase in bone volume/total bone volume (BV/TV) at 10 mg/kg, ip administered every other day for 8 weeks by micro-CT analysis; format: functional, organism-based
[19] = tested on: Mus musculus; assay: Anti-osteoporosis activity in ovariectomized C57BL/6 mouse assessed as reduction in bone loss by measuring increase in trabecular number at 10 mg/kg, ip administered every other day for 8 weeks by micro-CT analysis; format: functional, organism-based
[20] = tested on: Mus musculus; assay: Anti-osteoporosis activity in ovariectomized C57BL/6 mouse assessed as reduction in bone loss by measuring decrease in trabecular spacing at 10 mg/kg, ip administered every other day for 8 weeks by micro-CT analysis; format: functional, organism-based
[21] = target: T2, Tumor necrosis factor ligand superfamily member 11 (Mus musculus, UniProt O35235); assay: Binding affinity to mouse RANKL assessed as dissociation constant by SPR analysis
T2 sequence (O35235 whole entry): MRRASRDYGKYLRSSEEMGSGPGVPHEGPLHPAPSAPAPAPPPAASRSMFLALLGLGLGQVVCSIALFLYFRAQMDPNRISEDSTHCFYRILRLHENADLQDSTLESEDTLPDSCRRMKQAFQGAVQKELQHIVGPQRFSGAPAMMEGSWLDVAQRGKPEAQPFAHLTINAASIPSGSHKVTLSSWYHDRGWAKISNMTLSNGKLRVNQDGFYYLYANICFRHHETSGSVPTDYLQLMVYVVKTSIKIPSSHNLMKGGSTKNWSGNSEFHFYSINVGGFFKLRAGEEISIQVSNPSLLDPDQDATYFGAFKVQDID

CC(C)(OCC(F)(F)F)C([Se]c1ccccc1)C(=O)Nc1ccncc1 (configuration not stated)
Activity [1]: Dose-Dependent Effect | Activity [2]: Active | IC50 ([3]; C57BL/6, BMMC): 2.41 µM | Activity ([3]; dose 0-10 µM, time 6.0 day): Dose-Dependent Effect | Activity [4]: Active | Activity [5]: Dose-Dependent Effect | Activity [6]: Dose-Dependent Effect | inhibition [7]: Active | Activity [8]: inactive | Activity [9]: inactive | inhibition [10]: Active | inhibition [11]: Active | Activity [12]: Dose-Dependent Effect | Activity [13]: Dose-Dependent Effect | Activity [14]: Dose-Dependent Effect | Activity [15]: Non-Toxic | Activity [16]: Non-Toxic | Activity [17]: Non-Toxic | Activity [18]: Active | Activity [19]: Active | Activity [20]: Active | Kd [21]: 268 µM
